tested on: organic phosphorus agent- and carbamate agent-resistant Myzus persicasypii; test: Test to organic phosphorus agent- and carbamate agent-resistant Myzus persicasypii (spray on eggplant); type: in vivo; conditions: efficacious component concentration 500 ppm; sprayed on eggplant; 28° C.; after 7 days from spraying
Method: (§1) • Sample Solution Preparation • Solvent: dimethylformamide 3 part by weight • Emulsifier: polyoxyethylene alkyl phenyl ether 1 part by weight
(§2) To prepare a proper active compound, the active compound 1 part by weight was mixed with the above-mentioned solvent containing the above-mentioned emulsifier and the mixture was diluted with water to a prescribed concentration.
30 grown organic phosphorus agent- and carbamate agent-resistant Myzus persicasypii were inoculated in each vinyl pot with 6 cm diameter in which eggplant seeding was done and after 1 day from the inoculation, the above produced active compound diluted with water to have a prescribed concentration was sufficiently sprayed by a spray gun. After the spraying, the vinyl pots were left in a greenhouse at 28° C. and the insect extermination ratio was calculated after 7 days from spraying. The test was repeated two times.

Structure (SMILES) | insecticidal ratio (insect extermination ratio)
CCc1cc(C(F)(C(F)(F)F)C(F)(F)F)cc(C)c1NC(=O)c1cccc(NC(=O)c2cnccc2C(F)(F)F)c1 [Compound 1, 3-[4-(trifluoromethyl)nicotinyl]amino-N-(2-ethyl-6-methyl-4-heptafluoroisopropylphenyl)benzamide] | 100%
CCc1cc(C(F)(C(F)(F)F)C(F)(F)F)cc(C)c1NC(=O)c1cccc(NC(=O)c2ccccc2Cl)c1 [Compound 57] | 100%
CCc1cc(C(F)(C(F)(F)F)C(F)(F)F)cc(C)c1NC(=O)c1cccc(NC(=O)c2cccc(Cl)c2)c1 [Compound 58] | 100%
CCc1cc(C(F)(C(F)(F)F)C(F)(F)F)cc(C)c1NC(=O)c1cccc(NC(=O)c2ccc(F)cc2)c1 [Compound 61] | 100%
CCc1cc(C(F)(C(F)(F)F)C(F)(F)F)cc(C)c1NC(=O)c1cccc(NC(=O)c2ccccc2F)c1 [Compound 63] | 100%
Cc1cc(C(F)(C(F)(F)F)C(F)(F)F)cc(C)c1NC(=O)c1cccc(NC(=O)c2ccc(Cl)cc2)c1F [Compound 139] | 100%

tested on: not given; test: not given; conditions: not given

Structure (SMILES) | melting point
Cc1cc(C(F)(C(F)(F)F)C(F)(F)F)cc(C)c1NC(=O)c1cccc(NC(=O)c2ccccc2Cl)c1 [Compound 75, 3-(2-chlorobenzoyl)amino-N-(2,6-dimethyl-4-heptafluoroisopropylphenyl)benzamide] | 141 to 145 °C

tested on: third stage larvae of Spodoptera litura; test: Test to larvae of Spodoptera litura (leaf immersion); type: in vivo; conditions: efficacious component concentration 20 ppm; batata leaves immersed; 25° C.; after 7 days; average of two dishes
Method: as §1, §2
Leaves of batata were immersed in the sample solution diluted with water to a prescribed concentration and then the solution was dried out by air and the resulting leaves were put in a laboratory dish and 10 third stage larvae of Spodoptera litura were released and put in a greenhouse at a temperature 25° C. and the leaves of batata were added on second day and fourth day and the number of dead larvae was investigated after 7 days and the ratio of the dead larvae was calculated.
The results were the averages of two laboratory dishes for respective 1 group in this test.

Structure (SMILES) | insecticidal ratio (ratio of the dead larvae)
CCc1cc(C(F)(C(F)(F)F)C(F)(F)F)cc(C)c1NC(=O)c1cccc(NC(=O)c2cnccc2C(F)(F)F)c1 [Compound 1, 3-[4-(trifluoromethyl)nicotinyl]amino-N-(2-ethyl-6-methyl-4-heptafluoroisopropylphenyl)benzamide] | 100%
CCc1cc(C(F)(C(F)(F)F)C(F)(F)F)cc(C)c1NC(=O)c1cccc(NC(=O)c2ccc(Cl)nc2)c1 [Compound 3] | 100%
CCc1cc(C(F)(C(F)(F)F)C(F)(F)F)cc(C)c1NC(=O)c1cccc(NC(=O)c2ncc(C(F)(F)F)cc2Cl)c1 [Compound 13] | 100%
CCc1cc(C(F)(C(F)(F)F)C(F)(F)F)cc(C)c1NC(=O)c1cccc(NC(=O)c2cc(Cl)sc2Cl)c1 [Compound 24] | 100%
CCc1cc(C(F)(C(F)(F)F)C(F)(F)F)cc(C)c1NC(=O)c1cccc(NC(=O)c2cccs2)c1 [Compound 30] | 100%
CCc1cc(C(F)(C(F)(F)F)C(F)(F)F)cc(C)c1NC(=O)c1cccc(NC(=O)c2ccco2)c1 [Compound 32] | 100%
CCc1cc(C(F)(C(F)(F)F)C(F)(F)F)cc(C)c1NC(=O)c1cccc(NC(=O)c2snnc2C)c1 [Compound 35] | 100%
CCc1cc(C(F)(C(F)(F)F)C(F)(F)F)cc(C)c1NC(=O)c1cccc(NC(=O)c2ccccc2I)c1 [Compound 36] | 100%
Cc1cc(C(F)(C(F)(F)F)C(F)(F)F)cc(I)c1NC(=O)c1cccc(NC(=O)c2ccccc2Cl)c1 [Compound 37] | 100%
CCc1cc(C(F)(C(F)(F)F)C(F)(F)F)cc(C)c1NC(=O)c1cccc(NC(=O)c2ccccc2Cl)c1 [Compound 38] | 100%
CCc1cc(C(F)(C(F)(F)F)C(F)(F)F)cc(C)c1NC(=O)c1cccc(NC(=O)c2ccc(OC(F)(F)F)cc2)c1 [Compound 39] | 100%
CCc1cc(C(F)(C(F)(F)F)C(F)(F)F)cc(C)c1NC(=O)c1cccc(NC(=O)c2ccccc2Br)c1 [Compound 40] | 100%
CCc1cc(C(F)(C(F)(F)F)C(F)(F)F)cc(C)c1NC(=O)c1cccc(NC(=O)c2cccc(Br)c2)c1 [Compound 41] | 100%
CCc1cc(C(F)(C(F)(F)F)C(F)(F)F)cc(C)c1NC(=O)c1cccc(NC(=O)c2ccc(Br)cc2)c1 [Compound 42] | 100%
CCc1cc(C(F)(C(F)(F)F)C(F)(F)F)cc(C)c1NC(=O)c1cccc(NC(=O)c2ccc(Cl)c(Cl)c2)c1 [Compound 43] | 100%
CCc1cc(C(F)(C(F)(F)F)C(F)(F)F)cc(C)c1NC(=O)c1cccc(NC(=O)c2ccc(Cl)cc2Cl)c1 [Compound 44] | 100%
CCc1cc(C(F)(C(F)(F)F)C(F)(F)F)cc(C)c1NC(=O)c1cccc(NC(=O)c2cc(Cl)cc(Cl)c2)c1 [Compound 45] | 100%
CCc1cc(C(F)(C(F)(F)F)C(F)(F)F)cc(C)c1NC(=O)c1cccc(NC(=O)c2c(Cl)cccc2Cl)c1 [Compound 46] | 100%
CCc1cc(C(F)(C(F)(F)F)C(F)(F)F)cc(C)c1NC(=O)c1cccc(NC(=O)c2cccc(Cl)c2Cl)c1 [Compound 47] | 100%
CCc1cc(C(F)(C(F)(F)F)C(F)(F)F)cc(C)c1NC(=O)c1cccc(NC(=O)c2cc(Cl)ccc2Cl)c1 [Compound 48] | 100%

Structure (SMILES) | insecticidal ratio (ratio of the dead larvae)
CCc1cc(C(F)(C(F)(F)F)C(F)(F)F)cc(C)c1NC(=O)c1cccc(NC(=O)c2ccc(C(F)(F)F)cc2)c1 [Compound 49] | 100%
CCc1cc(C(F)(C(F)(F)F)C(F)(F)F)cc(C)c1NC(=O)c1cccc(NC(=O)c2ccccc2C(F)(F)F)c1 [Compound 51] | 100%
CCc1cc(C(F)(C(F)(F)F)C(F)(F)F)cc(C)c1NC(=O)c1cccc(NC(=O)c2c(F)cc(F)cc2F)c1 [Compound 52] | 100%
CCc1cc(C(F)(C(F)(F)F)C(F)(F)F)cc(C)c1NC(=O)c1cccc(NC(=O)c2ccccc2[N+](=O)[O-])c1 [Compound 53] | 100%
CCc1cc(C(F)(C(F)(F)F)C(F)(F)F)cc(C)c1NC(=O)c1cccc(NC(=O)c2c(F)cccc2F)c1 [Compound 54] | 100%
CCc1cc(C(F)(C(F)(F)F)C(F)(F)F)cc(C)c1NC(=O)c1cccc(NC(=O)c2cccc(F)c2F)c1 [Compound 55] | 100%
CCc1cc(C(F)(C(F)(F)F)C(F)(F)F)cc(C)c1NC(=O)c1cccc(NC(=O)c2ccc(F)cc2F)c1 [Compound 56] | 100%
CCc1cc(C(F)(C(F)(F)F)C(F)(F)F)cc(C)c1NC(=O)c1cccc(NC(=O)c2cccc(Cl)c2)c1 [Compound 58] | 100%
CCc1cc(C(F)(C(F)(F)F)C(F)(F)F)cc(C)c1NC(=O)c1cccc(NC(=O)c2ccc(Cl)cc2)c1 [Compound 59] | 100%
CCc1cc(C(F)(C(F)(F)F)C(F)(F)F)cc(C)c1NC(=O)c1cccc(NC(=O)c2ccc(OC)cc2)c1 [Compound 60] | 100%
CCc1cc(C(F)(C(F)(F)F)C(F)(F)F)cc(C)c1NC(=O)c1cccc(NC(=O)c2ccc(F)cc2)c1 [Compound 61] | 100%
CCc1cc(C(F)(C(F)(F)F)C(F)(F)F)cc(C)c1NC(=O)c1cccc(NC(=O)c2cccc(F)c2)c1 [Compound 62] | 100%
CCc1cc(C(F)(C(F)(F)F)C(F)(F)F)cc(C)c1NC(=O)c1cccc(NC(=O)c2ccccc2F)c1 [Compound 63] | 100%
CCc1cc(C(F)(C(F)(F)F)C(F)(F)F)cc(C)c1NC(=O)c1cccc(NC(=O)c2ccc(C)cc2)c1 [Compound 64] | 100%
CCc1cc(C(F)(C(F)(F)F)C(F)(F)F)cc(C)c1NC(=O)c1cccc(NC(=O)c2ccccc2C)c1 [Compound 66] | 100%
Cc1cc(C(F)(C(F)(F)F)C(F)(F)F)cc(C)c1NC(=O)c1cccc(NC(=O)c2c(F)cccc2F)c1 [Compound 72] | 100%
Cc1cc(C(F)(C(F)(F)F)C(F)(F)F)cc(C)c1NC(=O)c1cccc(NC(=O)c2ccc(Cl)cc2)c1 [Compound 77] | 100%
Cc1cc(C(F)(C(F)(F)F)C(F)(F)F)cc(C)c1NC(=O)c1cccc(NC(=O)c2ccccc2)c1 [Compound 88] | 100%
Cc1cc(C(F)(C(F)(F)F)C(F)(F)F)cc(C)c1NC(=O)c1cccc(NC(=O)c2ccccc2Cl)c1F [Compound 134] | 100%
Cc1cc(C(F)(C(F)(F)F)C(F)(F)F)cc(C)c1NC(=O)c1cccc(NC(=O)c2ccc(Cl)cc2)c1F [Compound 139] | 100%
